Test [1] has as its system H4 human neuroglioma cells over-expressing the wild-type human APP695. The test is described as follows: sAPPβ Whole-Cell Assay (in vitro sAPPb assay). Conditions: read-out: sAPPβ Whole-Cell Assay IC50. The test is classed as cell-based. The procedure: Whole Cell Assay (In Vitro sAPPb Assay):
H4 human neuroglioma cells over-expressing the wild-type human APP695 are treated for 18 hours with compound in cell growth media having a final concentration 1% DMSO. sAPPβ levels are measured using TMB-ELISA with capture APP N-terminal antibody (Affinity BioReagents, OMA1-03132), wild-type sAPPβ specific reporter p192 (Elan), and tertiary anti rabbit-HRP (GE Healthcare).

The target of test [2] is BACE1 (Homo sapiens (Human), UniProt P56817). The test is described as follows: BACE1 Cell-Free Assay. The test is classed as biochemical. The following applies: fluorescence polarization; 0.1 nM BACE1, 150 nM peptide substrate, pH 4.5, 3 hours at 37° C.; geometric mean.
The target of test [3] is BACE2 (Homo sapiens (Human), UniProt Q9Y5Z0). As to the kind of experiment: BACE2 Cell-free Assay. It counts as biochemical. The following applies: fluorescence polarization; 2.5 nM BACE2, 150 nM peptide substrate, pH 4.5, 3 hours at 37° C.; geometric mean. The procedure:
BACE2 Assay: This assay measures the inhibition of the BACE2 enzyme as it cleaves a non-native peptide. […] The substrate is Biotin-[…](Oregon green)-KK-OH. The BACE2 enzyme is available from Enzo Life Sciences (Cat #BML-SE550). Compounds are incubated in a 1⁄2 log dose response curve from a top concentration of 100 μM with BACE2 enzyme and the biotinylated fluorescent peptide in 384-well black plates (Thermo Scientific #4318). […] Plates are covered and incubated for 3 hours at 37° C. The reaction is stopped with the addition of 30 μL of 1.5 μM Streptavidin (Pierce, #21125). After a 10 minute incubation at room temperature, plates are read on a PerkinElmer Envision for fluorescent polarization (Ex485 nm/Em530 nm). The activity of the beta-secretase enzyme is detected by changes in the fluorescence polarization that occur when the substrate is cleaved by the enzyme.
In general terms: Polarisation of emitted light reports the rotation of a fluorescent probe.

Setting [4] is: H4 cells, 18 hours with compound, sAPPβ by TMB-ELISA, geometric mean.

Experimental findings from US9260455B2, “Alkyl-substituted hexahydropyrano[3,4-d][1,3]thiazin-2-amine compounds” (Pfizer Inc., priority 2012, dated 2016) are described below.

Read-outs that look alike come from different tables or passages of the source.

BACE1, sequence (P56817 46-457): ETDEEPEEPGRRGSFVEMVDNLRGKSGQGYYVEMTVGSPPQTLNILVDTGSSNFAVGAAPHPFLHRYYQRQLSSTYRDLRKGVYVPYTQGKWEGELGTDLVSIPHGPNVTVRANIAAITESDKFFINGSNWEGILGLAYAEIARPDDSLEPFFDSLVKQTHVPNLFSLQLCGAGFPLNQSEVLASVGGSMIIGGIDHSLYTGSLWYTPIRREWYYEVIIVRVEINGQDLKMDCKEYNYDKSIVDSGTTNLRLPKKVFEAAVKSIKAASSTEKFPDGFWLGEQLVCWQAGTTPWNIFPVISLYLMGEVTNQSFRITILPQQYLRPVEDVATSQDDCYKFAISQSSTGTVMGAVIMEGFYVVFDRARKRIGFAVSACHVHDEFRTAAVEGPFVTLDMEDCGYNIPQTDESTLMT
BACE2, sequence (Q9Y5Z0 63-518): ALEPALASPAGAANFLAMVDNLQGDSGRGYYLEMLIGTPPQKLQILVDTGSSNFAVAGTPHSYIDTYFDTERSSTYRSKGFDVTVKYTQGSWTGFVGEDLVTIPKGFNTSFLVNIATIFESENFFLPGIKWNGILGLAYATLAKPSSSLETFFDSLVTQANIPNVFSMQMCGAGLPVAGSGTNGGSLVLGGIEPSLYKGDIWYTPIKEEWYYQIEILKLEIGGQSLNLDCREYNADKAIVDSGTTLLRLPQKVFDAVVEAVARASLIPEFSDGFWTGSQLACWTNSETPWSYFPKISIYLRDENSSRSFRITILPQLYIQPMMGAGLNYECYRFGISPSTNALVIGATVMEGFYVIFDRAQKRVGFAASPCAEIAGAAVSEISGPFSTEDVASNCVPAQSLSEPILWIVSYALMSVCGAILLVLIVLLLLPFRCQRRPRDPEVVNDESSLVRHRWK

For orientation: IC50 means the concentration at which inhibition is half-maximal. With `CC(C)C[C@H]1C[C@H]2CSC(N)=N[C@@]2(c2ccc(F)cc2F)CO1` [Example 7, (4aR,6S,8aS)-8a-(2,4-Difluorophenyl)-6-(2-methylpropyl)-4,4a,5,6,8,8a-hexahydropyrano[3,4-d][1,3]thiazin-2-amine], the IC50 in test [1] (setting [4]) is 20.6 nM.

As to `CCOC[C@H]1C[C@H]2[C@@H](C)SC(N)=N[C@@]2(c2ccc(F)cc2F)CO1` [Example 5, (4R,4aR,6R,8aS)-8a-(2,4-Difluorophenyl)-6-(ethoxymethyl)-4-methyl-4,4a,5,6,8,8a-hexahydropyrano[3,4-d][1,3]thiazin-2-amine], the IC50 in test [1] (18 h) stood at 39 nM; in test [2], 613 nM; in test [3] it was 274 nM.

With `CC(C)OC[C@H]1C[C@H]2[C@@H](C)SC(N)=N[C@@]2(c2ccc(F)cc2F)CO1` [Example 6, (4R,4aR,6R,8aS)-8a-(2,4-Difluorophenyl)-4-methyl-6-[(propan-2-yloxy)methyl]-4,4a,5,6,8,8a-hexahydropyrano[3,4-d][1,3]thiazin-2-amine], the IC50 in test [1] (setting [4]) came to 42.9 nM; in test [2] it was 718 nM; in test [3] it was 5080 nM.

In the case of `C[C@H]1C[C@H]2CSC(N)=N[C@@]2(c2ccc(F)cc2F)CO1` [Example 3, (4aR,6S,8aS)-8a-(2,4-Difluorophenyl)-6-methyl-4,4a,5,6,8,8a-hexahydropyrano[3,4-d][1,3]thiazin-2-amine], the values for the IC50 in test [1] (setting [4]) and in test [3] were 37.2 nM and 1140 nM, respectively.

Consider `C[C@H]1SC(N)=N[C@@]2(c3ccc(F)cc3F)CO[C@@H](CF)C[C@@H]12` [Example 1, (4R,4aR,6R,8aS)-8a-(2,4-Difluorophenyl)-6-(fluoromethyl)-4-methyl-4,4a,5,6,8,8a-hexahydropyrano[3,4-d][1,3]thiazin-2-amine], for which the figures for the IC50 in test [1] (setting [4]), in test [2] and in test [3] were 61.4 nM, 805 nM and 1560 nM, respectively.

As to `COC[C@H]1C[C@H]2CSC(N)=N[C@@]2(c2ccc(F)cc2F)CO1` [Example 8, (4aR,6R,8aS)-8a-(2,4-Difluorophenyl)-6-(methoxymethyl)-4,4a,5,6,8,8a-hexahydropyrano[3,4-d][1,3]thiazin-2-amine], the values for the IC50 in test [1] (setting [4]) and in test [3] were 30 nM and 1630 nM, respectively.

Compound `NC1=N[C@@]2(c3ccc(F)cc3F)CO[C@@H](C(F)F)C[C@H]2CS1` [Example 4, (4aR,6R,8aS)-6-(Difluoromethyl)-8a-(2,4-difluorophenyl)-4,4a,5,6,8,8a-hexahydropyrano[3,4-d][1,3]thiazin-2-amine] showed an IC50 in test [3] of 2140 nM.

In the case of `COC[C@H]1C[C@H]2[C@@H](C)SC(N)=N[C@@]2(c2ccc(F)cc2F)CO1` [Example 2, (4R,4aR,6R,8aS)-8a-(2,4-Difluorophenyl)-6-(methoxymethyl)-4-methyl-4,4a,5,6,8,8a-hexahydropyrano[3,4-d][1,3]thiazin-2-amine], the IC50 was 31.9 nM in test [1] (setting [4]), 737 nM in test [2] and 2310 nM in test [3].
